Experimental data reported in publication PMC2009384, “The carcinogenicity of polycyclic hydrocarbon epoxides in newborn mice” (British Journal of Cancer, 1975).

System: newborn Swiss mice
Test: Experiment II: carcinogenicity in newborn mice, chrysene, 7-methylbenz(a)anthracene and K region epoxides (s.c. injection, tumour incidence to 70-75 weeks)
Details: for incidence of lung tumours / liver tumour incidence: 3 x 100 µg s.c., newborn; for incidence of lung tumours: 7-methylbenz(a)anthracene pair
Description: Br. J. Cancer (1975) 31, 182 THE CARCINOGENICITY OF POLYCYCLIC HYDROCARBON EPOXIDES IN NEWBORN MICE P. L. GROVER, P. SIMS, B. C. V. MITCHLEY AND F. J. C. ROE From the Chester Beatty Research Institute, Institute of Cancer Research, Royal Cancer Hospital, Fulham Road, London, SW3 6JB Received 9 August 1974. […] THE HYPOTHESIS that the carcino- genicity of polycyclic hydrocarbons is associated with the formation of epoxide metabolites (Grover, Hewer and Sims, 1971, 1972; Keysell et al., 1973) is sup- ported by some experimental evidence but remains unproven. […] The epoxides can also act as alkylating agents (Grover and Sims, 1970) and as mutagens (Ames, Sims and Grover, 1972; Huberman et al., 1971; Cookson, Sims and Grover, 1971; Fahmy and Fahmy, 1973). […] The newborn mouse, which is susceptible to carcinogenic polycyclic hydrocarbons (Roe, Rowson and Salaman, 1961; Roe, Mitchley and Walters, 1963; Walters and Roe, 1964, 1966) can be considered as a convenient source of several types of rapidly dividing cells. Consequently we have tested the K region epoxides derived from phenanthrene, benz(a)anthracene, 7-methylbenz(a)anthracene, dibenz(a,h)- anthracene, chrysene and 3-methylchol- anthrene, together with some of the CARCINOGENICITY OF POLYCYCLIC HYDROCARBON EPOXIDES IN MICE 183 parent hydrocarbons, for carcinogenicity using newborn mice. This paper presents the results that were obtained in these experiments. MATERIALS AND METHODS The polycyclic hydrocarbon epoxides, phenanthrene 9,10-oxide, benz(a)anthracene 5,6-oxide, 7-methylbenz(a)anthracene 5,6- oxide, dibenz(a,h)anthracene 5,6-oxide, chry- sene 5,6-oxide and 3-methylcholanthrene 11,12-oxide were prepared from the parent hydrocarbons (Newman and Blum, 1964; Boyland and Sims, 1965; Sims 1966). Two experiments were undertaken fol- lowing similar protocols. For each experi- ment Swiss mice from a specific pathogen- free colony were time mated so as to produce a large number of litters over the course of 2 or 3 days. […] Test compounds were suspended in poly- ethylene glycol (PEG) 400 and injections of 0-02 ml of the suspension were given by introducing a 25 gauge hypodermic needle through the skin near the root of the tail and threading it subcutaneously to deliver the injected material in the interscapular region. Injections were given to every mouse on the first day or first 3 days of life. The details of treatments and numbers of mice of each sex in each group are shown in Table I (Experiment I) and Table II (Ex- periment II). Surviving mice were weaned when they w ere 21 days old. Thereafter, males and females w ere separated and housed 6 per cage in metal boxes. A mixture of sawdust and wood shavings was used as bedding. The mice were fed on a standard cubed diet (Formulation 86 from C. Holdman and Sons (Plow co Feeds), Byers Lane, South Godstone, Surrey) and water was given ad libitum. Mice were inspected daily, and at weekly intervals they were weighed and palpated for tumours and other lesions. […] The experiment was terminated when surviving mice were between 70 and 75 weeks old. A full routine post- mortem examination, which included disten- sion of the urinary bladder with fixative, was carried out. The number of lesions thought to be neoplasms and the size of the largest such lesion in each organ affected were recorded. All tissues with suspected neoplasms were fixed in Bouin's solution. Haematoxylin and eosin stained 5 µm paraffin wax sections were prepared and examined microscopically. RESULTS The results of the two experiments in terms of tumour incidence are sum- marized in […].

[1] = females, 60 µg, 1 treatment (Day 0 only) s.c. in PEG 400
[2] = males, 60 µg, 1 treatment (Day 0 only) s.c. in PEG 400
[3] = females, 100 µg per treatment, 3 treatments
[4] = females, 100 µg per treatment, 3 treatments (Days 0, 1 and 2) s.c. in PEG 400
[5] = males, 100 µg per treatment, 3 treatments
[6] = males, 100 µg per treatment, 3 treatments (Days 0, 1 and 2) s.c. in PEG 400

Cc1ccc2cc3c(c4c2c1CC4)C1OC1c1ccccc1-3 (stereo not drawn) [3-Methylcholanthrene 11,12-oxide]
No. of mice examined at p.m. at termination of experiment (70-75th week) with liver tumours (females, 60 µg, 1 treatment): 0
No. of mice examined at p.m. at termination of experiment (70-75th week) with lung tumours (females, 60 µg, 1 treatment): 3
No. of mice examined at p.m. at termination of experiment (70-75th week) with multiple liver tumours (females, 60 µg, 1 treatment): 0
No. of mice examined at p.m. at termination of experiment (70-75th week) with multiple lung tumours (females, 60 µg, 1 treatment): 1
No. of mice examined at p.m. at termination of experiment (70-75th week) with other tumours (females, 60 µg, 1 treatment): 0
No. of mice examined at p.m. from 50-70th week with liver tumours (females, 60 µg, 1 treatment): 0
No. of mice examined at p.m. from 50-70th week with lung tumours (females, 60 µg, 1 treatment): 0
No. of mice examined at p.m. from 50-70th week with other tumours (females, 60 µg, 1 treatment): 0
No. of survivors at 50 weeks [1]: 27
No. of survivors at 70 weeks [1]: 25
effect on the incidence of liver, lung or other tumours (in the doses tested (3 x 100 µg or 1 x 60 µg)): without apparent effect
No. of mice examined at p.m. at termination of experiment (70-75th week) with liver tumours (males, 60 µg, 1 treatment): 6
No. of mice examined at p.m. at termination of experiment (70-75th week) with lung tumours (males, 60 µg, 1 treatment): 5
No. of mice examined at p.m. at termination of experiment (70-75th week) with multiple liver tumours (males, 60 µg, 1 treatment): 1
No. of mice examined at p.m. at termination of experiment (70-75th week) with multiple lung tumours (males, 60 µg, 1 treatment): 0
No. of mice examined at p.m. at termination of experiment (70-75th week) with other tumours (males, 60 µg, 1 treatment): 0
No. of mice examined at p.m. from 50-70th week with liver tumours (males, 60 µg, 1 treatment): 0
No. of mice examined at p.m. from 50-70th week with lung tumours (males, 60 µg, 1 treatment): 0
No. of mice examined at p.m. from 50-70th week with other tumours (males, 60 µg, 1 treatment): 0
No. of survivors at 50 weeks [2]: 28
No. of survivors at 70 weeks [2]: 26

Cc1c2c(cc3ccccc13)-c1ccccc1C1OC21 (stereo not drawn) [7-Methylbenz(a)anthracene 5,6-oxide]
incidence of lung tumours: slightly raised
No. of mice examined at p.m. at termination of experiment (70-75th week) with liver tumours [3]: 0
No. of mice examined at p.m. at termination of experiment (70-75th week) with lung tumours [3]: 6
No. of mice examined at p.m. at termination of experiment (70-75th week) with multiple liver tumours [3]: 0
No. of mice examined at p.m. at termination of experiment (70-75th week) with multiple lung tumours [3]: 3
No. of mice examined at p.m. at termination of experiment (70-75th week) with other tumours [3]: 0
No. of mice examined at p.m. from 50-70th week with liver tumours [3]: 0
No. of mice examined at p.m. from 50-70th week with lung tumours [3]: 1
No. of mice examined at p.m. from 50-70th week with other tumours [3]: 0
No. of survivors at 50 weeks [4]: 25
No. of survivors at 70 weeks [4]: 22
No. of mice examined at p.m. at termination of experiment (70-75th week) with liver tumours [5]: 4
No. of mice examined at p.m. at termination of experiment (70-75th week) with lung tumours [5]: 2
No. of mice examined at p.m. at termination of experiment (70-75th week) with multiple liver tumours [5]: 2
No. of mice examined at p.m. at termination of experiment (70-75th week) with multiple lung tumours [5]: 2
No. of mice examined at p.m. at termination of experiment (70-75th week) with other tumours [5]: 0
No. of mice examined at p.m. from 50-70th week with liver tumours [5]: 0
No. of mice examined at p.m. from 50-70th week with lung tumours [5]: 0
No. of mice examined at p.m. from 50-70th week with other tumours [5]: 0
No. of survivors at 50 weeks [6]: 20
No. of survivors at 70 weeks [6]: 20

Cc1c2ccccc2cc2c1ccc1ccccc12 [7-Methylbenz(a)anthracene, reference compound]
incidence of lung tumours: slightly raised
No. of mice examined at p.m. at termination of experiment (70-75th week) with liver tumours [3]: 0
No. of mice examined at p.m. at termination of experiment (70-75th week) with lung tumours [3]: 1
No. of mice examined at p.m. at termination of experiment (70-75th week) with multiple liver tumours [3]: 0
No. of mice examined at p.m. at termination of experiment (70-75th week) with multiple lung tumours [3]: 1
No. of mice examined at p.m. at termination of experiment (70-75th week) with other tumours [3]: 1
No. of mice examined at p.m. from 50-70th week with liver tumours [3]: 0
No. of mice examined at p.m. from 50-70th week with lung tumours [3]: 7
No. of mice examined at p.m. from 50-70th week with other tumours [3]: 1
No. of survivors at 50 weeks [4]: 21
No. of survivors at 70 weeks [4]: 10
No. of mice examined at p.m. at termination of experiment (70-75th week) with liver tumours [5]: 1
No. of mice examined at p.m. at termination of experiment (70-75th week) with lung tumours [5]: 3
No. of mice examined at p.m. at termination of experiment (70-75th week) with multiple liver tumours [5]: 1
No. of mice examined at p.m. at termination of experiment (70-75th week) with multiple lung tumours [5]: 3
No. of mice examined at p.m. at termination of experiment (70-75th week) with other tumours [5]: 1
No. of mice examined at p.m. from 50-70th week with liver tumours [5]: 11
No. of mice examined at p.m. from 50-70th week with lung tumours [5]: 10
No. of mice examined at p.m. from 50-70th week with other tumours [5]: 0
No. of survivors at 50 weeks [6]: 23
No. of survivors at 70 weeks [6]: 4
activity in increasing the incidence of liver tumours in males compared with K region epoxide (neonatally injected, 3 x 100 µg): more active than its K region epoxide

c1ccc2c(c1)-c1ccc3ccccc3c1C1OC21 (stereo not drawn) [Chrysene 5,6-oxide]
liver tumour incidence: increased
No. of mice examined at p.m. at termination of experiment (70-75th week) with liver tumours [3]: 1
No. of mice examined at p.m. at termination of experiment (70-75th week) with multiple liver tumours [3]: 0
No. of mice examined at p.m. at termination of experiment (70-75th week) with multiple lung tumours [3]: 0
No. of mice examined at p.m. at termination of experiment (70-75th week) with other tumours [3]: 0
No. of mice examined at p.m. from 50-70th week with liver tumours [3]: 0
No. of mice examined at p.m. from 50-70th week with lung tumours [3]: 0
No. of mice examined at p.m. from 50-70th week with other tumours [3]: 0
No. of survivors at 50 weeks [4]: 22
No. of survivors at 70 weeks [4]: 20
No. of mice examined at p.m. at termination of experiment (70-75th week) with liver tumours [5]: 8
No. of mice examined at p.m. at termination of experiment (70-75th week) with lung tumours [5]: 0
No. of mice examined at p.m. at termination of experiment (70-75th week) with multiple liver tumours [5]: 3
No. of mice examined at p.m. at termination of experiment (70-75th week) with multiple lung tumours [5]: 0
No. of mice examined at p.m. at termination of experiment (70-75th week) with other tumours [5]: 0
No. of mice examined at p.m. from 50-70th week with liver tumours [5]: 0
No. of mice examined at p.m. from 50-70th week with lung tumours [5]: 0
No. of mice examined at p.m. from 50-70th week with other tumours [5]: 0
No. of survivors at 50 weeks [6]: 23
No. of survivors at 70 weeks [6]: 21

c1ccc2c(c1)ccc1c3ccccc3ccc21 [Chrysene, reference compound]
liver tumour incidence: increased
No. of mice examined at p.m. at termination of experiment (70-75th week) with liver tumours [3]: 0
No. of mice examined at p.m. at termination of experiment (70-75th week) with lung tumours [3]: 0
No. of mice examined at p.m. at termination of experiment (70-75th week) with multiple liver tumours [3]: 0
No. of mice examined at p.m. at termination of experiment (70-75th week) with multiple lung tumours [3]: 0
No. of mice examined at p.m. at termination of experiment (70-75th week) with other tumours [3]: 0
No. of mice examined at p.m. from 50-70th week with liver tumours [3]: 0
No. of mice examined at p.m. from 50-70th week with lung tumours [3]: 0
No. of mice examined at p.m. from 50-70th week with other tumours [3]: 0
No. of survivors at 50 weeks [4]: 22
No. of survivors at 70 weeks [4]: 21
No. of mice examined at p.m. at termination of experiment (70-75th week) with liver tumours [5]: 13
No. of mice examined at p.m. at termination of experiment (70-75th week) with lung tumours [5]: 1
No. of mice examined at p.m. at termination of experiment (70-75th week) with multiple liver tumours [5]: 6
No. of mice examined at p.m. at termination of experiment (70-75th week) with multiple lung tumours [5]: 1
No. of mice examined at p.m. at termination of experiment (70-75th week) with other tumours [5]: 0
No. of mice examined at p.m. from 50-70th week with liver tumours [5]: 0
No. of mice examined at p.m. from 50-70th week with lung tumours [5]: 0
No. of mice examined at p.m. from 50-70th week with other tumours [5]: 0
No. of survivors at 50 weeks [6]: 28
No. of survivors at 70 weeks [6]: 27
